Consider 51 molecules from patent US20260184708A1, “PYRIDAZINONES AND METHODS OF USE THEREOF” (GFB (ABC), LLC, priority 2017, published 2026).

SMILES strings stand for the structures. Where two headings read alike, the source gives them in different places.

This assay deals with T1, TRPC5 (Homo sapiens, UniProt Q9UL62).
T1 construct: expressed in transfected cells; host or cells: HEK 293
T1 sequence (Q9UL62 1-973): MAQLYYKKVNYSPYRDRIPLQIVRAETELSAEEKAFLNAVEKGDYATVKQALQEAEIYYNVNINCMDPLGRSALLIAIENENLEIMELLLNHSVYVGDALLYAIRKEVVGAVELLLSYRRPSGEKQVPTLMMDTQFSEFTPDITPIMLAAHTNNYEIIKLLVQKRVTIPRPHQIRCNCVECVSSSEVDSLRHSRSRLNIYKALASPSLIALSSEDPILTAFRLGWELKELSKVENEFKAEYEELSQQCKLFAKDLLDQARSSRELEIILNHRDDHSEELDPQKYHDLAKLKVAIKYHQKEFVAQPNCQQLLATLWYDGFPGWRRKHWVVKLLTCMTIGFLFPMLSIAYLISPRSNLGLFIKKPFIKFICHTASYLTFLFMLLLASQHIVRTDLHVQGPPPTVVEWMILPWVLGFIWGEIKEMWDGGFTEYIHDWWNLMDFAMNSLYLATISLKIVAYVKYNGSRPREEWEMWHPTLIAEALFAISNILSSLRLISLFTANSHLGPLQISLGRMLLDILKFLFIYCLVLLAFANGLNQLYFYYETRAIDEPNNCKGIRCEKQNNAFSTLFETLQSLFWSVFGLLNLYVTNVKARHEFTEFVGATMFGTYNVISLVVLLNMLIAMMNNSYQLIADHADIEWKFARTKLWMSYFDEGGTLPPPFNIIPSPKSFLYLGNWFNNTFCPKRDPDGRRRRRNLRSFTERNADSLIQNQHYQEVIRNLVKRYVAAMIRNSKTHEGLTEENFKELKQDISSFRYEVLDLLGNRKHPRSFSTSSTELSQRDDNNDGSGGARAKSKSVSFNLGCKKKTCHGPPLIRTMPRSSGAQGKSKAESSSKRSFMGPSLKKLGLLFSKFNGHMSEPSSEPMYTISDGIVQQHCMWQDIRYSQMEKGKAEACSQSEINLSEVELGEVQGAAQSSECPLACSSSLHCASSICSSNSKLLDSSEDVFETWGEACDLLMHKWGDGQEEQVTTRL
In words: TRPC5 automated patch clamp assay (Qpatch), current block after rosiglitazone stimulation. It is filed as cell-based. The gist of the method: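 Currents were elicited by 300 ms voltage ramps (−100 to +100 mV, every 10 s, holding −60 mV) in human TRPC5-expressing HEK 293 cells on automated patch clamp, with Rosiglitazone (30 uM) activating the channel. Internal Ca2+ buffered to 1 μM; Hill-equation fitting gave IC50.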

Setting [1] is: Table 3, HEK293 cells overexpressing TRPC5, rosiglitazone stimulation, 80 mV, read-out: TRPC5_QP_ XC50_80.
The mark [2] stands for this setting: Table 3, HEK293 cells overexpressing TRPC5, rosiglitazone stimulation, 100 mV, read-out: TRPC5_QP_ XC50_100.
[3] abbreviates: Table 5, HEK293 cells overexpressing TRPC5, rosiglitazone stimulation, 80 mV, read-out: TRPC5_QP_ XC50_80.
The mark [4] stands for this setting: Table 5, HEK293 cells overexpressing TRPC5, rosiglitazone stimulation, 100 mV, read-out: TRPC5_QP_ XC50_100.
The mark [5] stands for this setting: Table 4, HEK293 cells overexpressing TRPC5, rosiglitazone stimulation, 80 mV, read-out: TRPC5_QP_ XC50_80.
The mark [6] stands for this setting: Table 4, HEK293 cells overexpressing TRPC5, rosiglitazone stimulation, 100 mV, read-out: TRPC5_QP_ XC50_100.
Setting [7] is: HEK293 cells overexpressing TRPC5, rosiglitazone stimulation, 80 mV, read-out: TRPC5_QP XC50_80.
Where [8] appears, read: HEK293 cells overexpressing TRPC5, rosiglitazone stimulation, 100 mV, read-out: TRPC5_QP XC50_100.

Regarding `Cc1ccccc1CN1CCN(c2cn[nH]c(=O)c2Cl)CC1`, the IC50 lay within 1 to 5 µM under setting [1] and 1 to 5 µM under setting [2]. Regarding `O=C1CN(c2cn[nH]c(=O)c2Cl)CCN1Cc1ccccc1OC(F)(F)F` [drawing 689], the IC50 runs as follows: under setting [1], 1e-05 to 1 µM; under setting [2], 1e-05 to 1 µM.

Regarding `Cc1ccccc1CN1CC2CCC(C1)N2c1cn[nH]c(=O)c1Br`, the IC50 fell in the range of 10 to 500 µM under setting [1] and 10 to 500 µM under setting [2].

For the molecule `COc1cc(C(F)(F)F)ccc1CN1CCN(c2cn[nH]c(=O)c2Cl)CC1=O`, the IC50 is, setting by setting: under setting [3], 1 to 5 µM; under setting [4], 5 to 10 µM. For `CCCc1c(N2CCN(Cc3ccccc3C)C(=O)C2)cn[nH]c1=O`, the IC50 was in the range of 10 to 500 µM under setting [5] and 10 to 500 µM under setting [6].

Regarding `O=C1CN(c2cn[nH]c(=O)c2Br)CCN1Cc1cccc2ccccc12` [drawing 665], the IC50 is, setting by setting: under setting [1], 1e-05 to 1 µM; under setting [2], 1e-05 to 1 µM. Regarding `O=c1[nH]ncc(N2CCN(Cc3ccc(Cl)cc3F)CC2)c1Cl`, the IC50 under setting [1] lay within 5 to 10 µM and the IC50 under setting [2] was in the range of 10 to 500 µM. Consider `Cc1ccccc1C(C)N1CCN(c2cn[nH]c(=O)c2Cl)CC1=O` (centres unmarked), for which the IC50 by setting is: under setting [5], 1e-05 to 1 µM; under setting [6], 1e-05 to 1 µM. On to `Cc1cc(F)ccc1CN1CCN(c2cc(=O)[nH][nH]c2=O)CC1`, for which the IC50 under setting [5] was 10 to 500 µM and the IC50 under setting [6] was in the range of 10 to 500 µM. `O=C1CN(c2cn[nH]c(=O)c2Cl)CCN1Cc1ccc(OC(F)(F)F)cc1F`: the IC50 is, setting by setting: under setting [3], 5 to 10 µM; under setting [4], 5 to 10 µM. On to `Cc1ccccc1CN1CCN(c2cn[nH]c(=O)c2C2=CCOCC2)CC1=O`, for which the IC50 under setting [1] was in the range of 10 to 500 µM and the IC50 under setting [2] was in the range of 10 to 500 µM. Take `Cc1ccccc1CN1CCN(c2cn[nH]c(=O)c2)CC1`: the IC50 lay within 10 to 500 µM under setting [7] and 10 to 500 µM under setting [8]. As to `Cc1cc(F)ccc1CN1CCN(c2n[nH]c(=O)cc2C)CC1`, the IC50 was 10 to 500 µM under setting [5] and 10 to 500 µM under setting [6]. On to `Cc1ccccc1CN1CCN(c2cn[nH]c(=O)c2CCC(C)C)CC1=O` [drawing 700], for which the IC50 lay in the range of 10 to 500 µM under setting [5] and 10 to 500 µM under setting [6]. Turning to `O=C1CN(c2c(Cl)cn[nH]c2=O)CCN1Cc1ccc(OC(F)(F)F)cc1`, the IC50 is 10 to 500 µM under setting [3] and 10 to 500 µM under setting [4]. Consider `Cc1ccccc1[C@H](C)N1CCN(c2cn[nH]c(=O)c2Cl)CC1=O` [drawing 743], for which the IC50 was 1e-05 to 1 µM under setting [5] and 1e-05 to 1 µM under setting [6].

For `Cc1ccccc1C(=O)N1CCN(c2cn[nH]c(=O)c2Br)CC1`, the IC50 under setting [7] was 5 to 10 µM and the IC50 under setting [8] lay within 5 to 10 µM.

Regarding `C=Cc1n[nH]c(=O)c(Cl)c1N1CCN(Cc2ccc(F)cc2C)CC1`, the IC50 was 10 to 500 µM under setting [3] and 10 to 500 µM under setting [4]. As to `COc1c(N2CCN(Cc3ccccc3C)C(=O)C2)cn[nH]c1=O`, the IC50 under setting [1] lay in the range of 10 to 500 µM and the IC50 under setting [2] is 10 to 500 µM. For the molecule `O=C1CN(c2cn[nH]c(=O)c2Cl)CCN1Cc1ccc(C2CC2)cc1`, the IC50 was 10 to 500 µM under setting [3] and 10 to 500 µM under setting [4].

For `COc1ncccc1CN1CCN(c2cn[nH]c(=O)c2Cl)CC1`, the IC50 was 1 to 5 µM under setting [3] and 1 to 5 µM under setting [4]. With `O=c1[nH]ncc(N2CCCNCC2)c1Br`, the IC50 is 10 to 500 µM under setting [1] and 10 to 500 µM under setting [2]. `COc1cc(F)ccc1CN1CCN(c2c(Cl)cn[nH]c2=O)CC1=O`: the IC50 lay within 10 to 500 µM under setting [3] and 10 to 500 µM under setting [4]. As to `O=C1CN(c2cn[nH]c(=O)c2Cl)CCN1Cc1ccc(F)cc1F` [drawing 686], the IC50 by setting is: under setting [1], 1 to 5 µM; under setting [2], 1 to 5 µM. For the molecule `CC[C@H](c1ccccc1)N1CCN(c2cn[nH]c(=O)c2Cl)CC1`, the IC50 is, setting by setting: under setting [3], 1 to 5 µM; under setting [4], 1 to 5 µM. Take `CCc1c(N2CCN(Cc3ccccc3C)C(=O)C2)cn[nH]c1=O`: the IC50 was in the range of 5 to 10 µM under setting [5] and 5 to 10 µM under setting [6]. For the molecule `O=c1[nH]ncc(N2C3CCC2CN(Cc2ccccc2)C3)c1Br`, the IC50 lay within 10 to 500 µM under setting [7] and 10 to 500 µM under setting [8].

Regarding `C[C@H](c1ccccc1)n1cnc2c1CCN(c1cn[nH]c(=O)c1Cl)C2` [drawing 833], the IC50 reads like this: under setting [3], 1 to 5 µM; under setting [4], 1 to 5 µM.

As to `CCN(CC)C(=O)CN1CCN(c2cn[nH]c(=O)c2Cl)CC1=O`, the IC50 runs as follows: under setting [5], 10 to 500 µM; under setting [6], 10 to 500 µM.

Turning to `Cc1ccccc1CN1C2CC1CN(c1cn[nH]c(=O)c1Br)C2`, the IC50 is 10 to 500 µM under setting [1] and 10 to 500 µM under setting [2]. On to `Cc1ccccc1CN1CCN(c2cn[nH]c(=O)c2Br)CC12CC2`, for which the IC50 reads like this: under setting [7], 10 to 500 µM; under setting [8], 10 to 500 µM. In the case of `CC[C@@H]1CN(Cc2ccc(F)cc2C)CCN1c1cn[nH]c(=O)c1Cl`, the IC50 fell in the range of 10 to 500 µM under setting [3] and 10 to 500 µM under setting [4]. Regarding `COCCOc1c(N2CCN(Cc3ccccc3C)C(=O)C2)cn[nH]c1=O`, the IC50 under setting [5] was in the range of 10 to 500 µM and the IC50 under setting [6] was in the range of 10 to 500 µM. Take `Cc1ccccc1CN1CCN(c2cn[nH]c(=O)c2CC(C)C)CC1=O`: the IC50 is, setting by setting: under setting [5], 10 to 500 µM; under setting [6], 10 to 500 µM. For `O=c1[nH]ncc(N2CCN(Cc3cccc(C(F)(F)F)c3)CC2)c1Cl`, the IC50 was 1 to 5 µM under setting [1] and 1 to 5 µM under setting [2]. As to `Cc1ccccc1CN1CCN(c2cn[nH]c(=O)c2Cl)CC1=O` [drawing 631], the IC50 under setting [7] lay in the range of 1e-05 to 1 µM and the IC50 under setting [8] is 1e-05 to 1 µM. Consider `Cc1cc(F)ccc1CN1CCN(c2c(Br)n[nH]c(=O)c2Cl)CC1=O`, for which the IC50 runs as follows: under setting [3], 10 to 500 µM; under setting [4], 10 to 500 µM.

For `O=c1[nH]ncc(N2CCc3c(ncn3Cc3cccc(C(F)(F)F)c3)C2)c1Cl`, the IC50 is 1 to 5 µM. Regarding `C=C(C)c1c(N2CCN(Cc3ccccc3C)C(=O)C2)cn[nH]c1=O`, the IC50 under setting [5] fell in the range of 10 to 500 µM and the IC50 under setting [6] lay in the range of 10 to 500 µM.

In the case of `CC(C)=Cc1c(N2CCN(Cc3ccccc3C)C(=O)C2)cn[nH]c1=O`, the IC50 runs as follows: under setting [5], 10 to 500 µM; under setting [6], 10 to 500 µM.

For the molecule `Cc1cc(F)ccc1CN1CCN(c2cn[nH]c(=O)c2Br)CC1`, the IC50 runs as follows: under setting [1], 1 to 5 µM; under setting [2], 1 to 5 µM. Consider `Cc1ccccc1C(C)N1CCN(c2cn[nH]c(=O)c2Br)CC1` (centres unmarked), for which the IC50 under setting [1] lay in the range of 1 to 5 µM and the IC50 under setting [2] lay in the range of 1 to 5 µM. Turning to `CN(C)C(=O)CN1CCN(c2cn[nH]c(=O)c2Br)CC1`, the IC50 under setting [7] is 10 to 500 µM and the IC50 under setting [8] is 10 to 500 µM. With `O=c1[nH]ncc(N2CCN(Cc3cccc4cn[nH]c34)CC2)c1Cl`, the IC50 is, setting by setting: under setting [5], 10 to 500 µM; under setting [6], 10 to 500 µM.

For `Cc1n[nH]c(=O)c(Cl)c1N1CCN(Cc2ccccc2OC(F)(F)F)C(=O)C1`, the IC50 was in the range of 5 to 10 µM under setting [3] and 5 to 10 µM under setting [4].

Consider `Cc1cc(F)ccc1CN1CCN(c2c(C)n[nH]c(=O)c2Cl)CC1=O`, for which the IC50 runs as follows: under setting [3], 10 to 500 µM; under setting [4], 10 to 500 µM. Turning to `Cc1ccccc1CN1CCN(c2cn[nH]c(=O)c2OC2CCCC2)CC1=O`, the IC50 lay in the range of 5 to 10 µM under setting [1] and 5 to 10 µM under setting [2]. As for `Cc1ccccc1[C@@H](C)N1CCN(c2cn[nH]c(=O)c2Cl)CC1`, the IC50 under setting [5] lay in the range of 1 to 5 µM and the IC50 under setting [6] fell in the range of 1 to 5 µM. On to `Cc1cc(F)ccc1CN1CCN(c2c(Cl)c(C)n[nH]c2=O)CC1=O`, for which the IC50 reads like this: under setting [5], 10 to 500 µM; under setting [6], 10 to 500 µM. Take `Cc1cc(F)ccc1CN1CCN(c2cn[nH]c(=O)c2Br)CC1=O`: the IC50 is, setting by setting: under setting [1], 1e-05 to 1 µM; under setting [2], 1 to 5 µM. Regarding `O=c1[nH]ncc(N2CCN(Cc3cccnc3Oc3ccccc3)CC2)c1Cl`, the IC50 reads like this: under setting [3], 5 to 10 µM; under setting [4], 5 to 10 µM.
